Test results: patent US7169568B2, “Method for screening molecules that exert a neurotrophic effect through activation of neurotrophin receptors” (New York University, priority 2000, dated 2007)
Entries after “also recorded” stand apart in the source; their conditions may differ.

Assays:
TrkA receptors = assay: TrkA receptor tyrosine phosphorylation in PC12 (615) cells (anti-pan-Trk immunoprecipitation, PY99 anti-phosphotyrosine immunoblot); assay type: cell-based; conditions: PC12 (615) cells
Experimental: Stably transfected PC12 cells expressing high levels of TrkA (615) were treated with the indicated compounds for 2 hours. The cells were subsequently harvested in lysis buffer as described in the Materials and Methods of Example 1. Lysates were immunoprecipitated with anti-pan Trk rabbit antiserum. Immunocomplexes were analyzed by immunoblotting with anti-phosphotyrosine antibody (PY99).
In FIG. 2A, different concentrations of adenosine were administered to PC12615 cells for 2 hours or NGF (1 ng/ ml) for 10 min. Cells were also treated with CGS21680 at the indicated dose for 2 hours. In FIG. 2B, PC12 cells (615) were treated with adenosine (10 μM) for various times or with 5 ng/ml NGF for 10 min. Phosphorylated TrkA receptors were detected by immunoblot analysis using PY99 anti-phosphotyrosine antibodies. The amount of Trk receptors in each condition was verified by immunoblotting.
In FIG. 3A, PC12 cells (615) were treated with the A2A agonist CGS 21680 (10 nM) and an A1 agonist CPA (10 nM) for 2 hr. ZM 241385 (10 nM), an A2A antagonist, was incubated with the cells for 15 min prior to treatment with adenosine (10 μM) for 2 hours. In FIG. 3B, PC12 cells (615) were incubated with the indicated concentrations of PP1, a Src family kinase inhibitor (Hanke et al, 1996), for 30 min, and then treated with adenosine (10 μM) for 2 hours. Activation of TrkA was assessed by immunoprecipitation and immunoblot analysis using PY99 anti-phosphotyrosine antibody.
In FIG. 7A, different concentrations of PACAP27 were administered to PC12 (615) cells for 2 hours or NGF (5 ng/ml) for 10 min. […] Phosphorylated TrkA receptors were detected by immunoblot analysis using PY99 anti-phosphotyrosine antibodies. The level of Trk receptors for each condition was verified by immunoblotting with anti-Trk antibodies.
(§1) Immunoprotection and Immunoblotting. PC12 cells or PC12-615 cells (Hempstead et al, 1992), were maintained in Dulbecco's Modified Eagle's Medium (DMEM) containing 10% fetal bovine serum (FBS) supplemented with 100 units/ml penicillin, 100 μg/ml streptomycin, and 2 mM glutamine plus 200 μg/ml G418. Cells were placed in low serum medium (1% FBS, 0.5% horse serum) overnight prior to experiments. Cell lysates from PC12, 615 cells, or hippocampal cells were incubated in lysis buffer (1% NP40) for 4 hours to overnight at 4° C. with anti-pan-Trk polyclonal antibody, followed by incubation with protein A-Sepharose beads. Equivalent amounts of protein were analyzed for each condition. The beads' were washed five times with lysis buffer and the immune complexes were boiled in SDS-sample buffer and loaded on sodium dodecyl sulfate-polyacrylamide electrophoresis (SDS-PAGE) gels for immunoblot analysis. The immunoreactive protein bands were detected by ECL reagents based upon enhanced chemiluminescence procedure (Amersham Pharmacia).
Immunoprecipitated and Immunoblotting. PC12 (615) cells were maintained in DMEM containing 10% FBS supplemented with 100 units/ml penicillin, 100 μg/ml streptomycin, and 2 mM glutamine plus 200 μg/ml G418. Cells were placed in serum free medium overnight before experiments. Cell lysates from PC12(615) cells, or basal forebrain cells were incubated in lysis buffer (1% Nonidet P-40) for 4 hrs to overnight at 4° C. with anti-pan-Trk polyclonal antibody followed by incubation with protein A-Sepharose beads. Equivalent amounts of protein were analyzed for each condition.

Akt = Akt activation in PC12 cells (anti-phospho Akt immunoblot); assay type: cell-based; conditions: PC12 cells; adenosine 10 μM; CGS 21680 data not shown
Experimental: as §1, with “PC12 cells (615) were treated with adenosine (10 μM) for various times in the presence or absence of […] (100 nM) or LY294002 (10 μM). The cells were subsequently harvested in lysis buffer; lysates and immunoprecipitated samples were subsequently immunoblotted with anti-phospho MAP kinase, anti-phospho Akt, and anti-phosphotyrosine. Reprobing with anti-MAP kinase and anti-pan-Trk antibodies was carried out to ensure equal protein loading. To assess the activity of Akt, endogenous Akt can be immunoprecipitated from lysates with anti-Akt and the proteins assayed in Western blots with anti-phospho-Akt antibodies. Use of the anti-Akt antibody versus the anti-phospho-Akt antibody on lysates can give a comparative assessment of the relative level of the enzyme and extent of activation (Kim et al., 2001). […]” for “Immunoprotection”

TrkA [1] = target: T1, TrkA (Homo sapiens, UniProt P04629); assay: 125I-NGF equilibrium binding, PC12 cells stably overexpressing TrkA; design: expressed in transfected cells; conditions: for Displacement of 125I-NGF binding: PC12 cells overexpressing TrkA, adenosine 1 mM, CGS 21680 1 μM; for Specific Binding of 125I-NGF: 30 minutes at 25° C., control 14316 +/− 350
Experimental: (§2) ^125I-NGF Binding Analysis. For equilibrium binding studies, ^125I-NGF was prepared as described previously (Hempstead et al, 1989). PC12 cells stably overexpressing TrkA (2×10^5 cells) and HEK 293 cells expressing TrkA (2×10^5) were incubated with ^125I-NGF in the absence and presence of adenosine compounds for 30 minutes at 25° C. The cells were then washed twice with PBS, and ^125I-NGF stripped with an acid solution (0.2 M acetic acid, 0.5 M NaCl). Nonspecific binding was assessed by adding unlabeled NGF at a final concentration of 1000 ng/ml and represented less than 20% of total binding. Specific binding was defined as total binding minus nonspecific binding. All conditions were carried out in triplicate and SEM calculated.
Target sequence in this assay (P04629 33-796): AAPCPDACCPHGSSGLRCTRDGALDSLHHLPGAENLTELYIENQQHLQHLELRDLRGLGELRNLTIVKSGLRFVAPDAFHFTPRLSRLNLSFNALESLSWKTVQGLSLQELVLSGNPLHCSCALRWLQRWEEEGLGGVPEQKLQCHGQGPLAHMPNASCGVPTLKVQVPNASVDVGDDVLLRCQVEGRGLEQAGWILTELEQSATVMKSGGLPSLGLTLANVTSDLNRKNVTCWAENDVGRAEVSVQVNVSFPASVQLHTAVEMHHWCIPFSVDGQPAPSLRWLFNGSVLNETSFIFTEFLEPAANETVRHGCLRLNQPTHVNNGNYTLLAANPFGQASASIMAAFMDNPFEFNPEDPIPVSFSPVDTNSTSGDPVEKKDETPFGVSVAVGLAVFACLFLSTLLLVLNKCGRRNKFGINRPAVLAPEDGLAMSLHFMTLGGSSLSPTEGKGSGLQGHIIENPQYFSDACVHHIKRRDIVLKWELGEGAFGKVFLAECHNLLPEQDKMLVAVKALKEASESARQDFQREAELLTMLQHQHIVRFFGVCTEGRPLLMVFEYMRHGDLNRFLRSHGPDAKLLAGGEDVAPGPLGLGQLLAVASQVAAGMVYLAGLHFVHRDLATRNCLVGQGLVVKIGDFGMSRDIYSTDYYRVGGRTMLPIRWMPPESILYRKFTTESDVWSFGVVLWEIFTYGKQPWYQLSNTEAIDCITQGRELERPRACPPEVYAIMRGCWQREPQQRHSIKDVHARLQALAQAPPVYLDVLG

TrkA [2] = target: T1, TrkA; assay: 125I-NGF equilibrium binding, HEK 293 cells expressing TrkA; design: expressed in transfected cells; host or cells: HEK 293 cells; conditions: for Specific Binding of 125I-NGF: 293/TrkA, 1 μM, 30 minutes at 25° C., control 39076 +/− 2885; for Displacement of 125I-NGF binding: 293 cells that expressed TrkA, excess concentrations
Experimental: as §2
Target sequence in this assay (P04629 33-796, species assumed): as the sequence (P04629 33-796) above

CCNC(=O)[C@H]1O[C@@H](n2cnc3c(N)nc(NCCc4ccc(CCC(=O)O)cc4)nc32)[C@H](O)[C@@H]1O [CGS 21680, 2-[(4-(2-carboxyethyl)phenylethyl)]aminoadenosine-5′-N-ethylcarboxamide]
Activation of TrkA receptor activity (TrkA receptors; 1 nM, 2 hours): verified | Activation of Akt (phospho-specific antibody) (Akt): able to activate Akt | Displacement of 125I-NGF binding (TrkA [1]): no displacement | Specific Binding of 125I-NGF (TrkA [1]; Pc12, 1 μM): 14237 +/− 1055 | Specific Binding of 125I-NGF (TrkA [2]): 39568 +/− 2032 | Displacement of 125I-NGF binding (TrkA [2]): did not displace

Nc1ncnc2c1ncn2[C@@H]1O[C@H](CO)[C@@H](O)[C@H]1O [adenosine]
Concentration range of the effect upon TrkA receptor activity (TrkA receptors; 2 hours): low nanomolar range; also recorded: low concentration range | Time required for increase in TrkA activation (TrkA receptors; adenosine 10 μM): at least 90 minutes | Activation of TrkA receptors (tyrosine phosphorylation) (TrkA receptors; ligand for 2 hours, adenosine 10 μM): Activated TrkA receptors were observed | Activation of Akt (phospho-specific antibody) (Akt): able to activate Akt | Displacement of 125I-NGF binding (TrkA [1]): no displacement | Specific Binding of 125I-NGF (TrkA [1]; Pc12, 1 mM): 14403 +/− 888 | Specific Binding of 125I-NGF (TrkA [2]): 36618 +/− 4185 | Displacement of 125I-NGF binding (TrkA [2]): did not displace
